The source of these data is PubChem BioAssay (NCI).

Assay in all cases: NCI-60 cell line screen, 48 h
Experiment [1] deals with SK-MEL-2 melanoma.
In experiment [2] the test system is HOP-92 NSCLC.
Experiment [3] deals with A549 NSCLC.
Experiment [4] deals with DMS 114 small cell lung.
The test system of experiment [5] is K-562 leukemia.
In experiment [6] the test system is OVCAR-3 ovarian.
Experiment [7] concerns KM20L2 colon.
Experiment [8] relates to 786-0 renal.
For experiment [9], the system named is XF 498 CNS.
For experiment [10], the system named is T-47D breast.

The structures appear in SMILES notation. Values joined by “and” are separate entries in the source; they are usually repeats but may differ in a detail not shown here. Equal values may be shown once.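 Five concentrations, 48 hours, 96-well plates. GI50 marks 50% less growth. TGI is the concentration that stops growth completely.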

Regarding `Cc1nc2c(ccc3ncccc32)[nH]1`, the TGI in experiment [1], in [2], in [3], in experiment [4], in [5] and in [6] was over 100 µM each time. Besides, the TGI in [7] and in experiment [8] was over 100 µM each time.

With `Cc1c(C(=O)C/C(=N/NC(=O)c2ccccc2O)C(=O)Nc2ccccc2C(C)C)[n+](=O)c2ccccc2n1[O-]`, the TGI in experiment [1] is 8.81 µM; in experiment [3], over 100 µM; in experiment [9], over 100 µM; in [4], 60.8 µM; in [5], over 100 µM; in experiment [6], over 100 µM. The TGI in [7] and in experiment [8] was over 100 µM in each case.

On to `CCCCCCCCCCCC(=O)OCCOCCOCCOCCOCCOCc1ccccc1`, for which the TGI in [1], in [2], in [3], in experiment [4], in experiment [5] and in experiment [6] was over 100 µM in each case. In addition, the TGI in [7] and in experiment [8] was over 100 µM in each case.

With `CC1(C(=O)O)CCC[C@@]2(C)C1CC[C@@]1(C)c3cocc3CCC21` (stereo partly drawn), the TGI in experiment [1], in experiment [2], in experiment [3], in experiment [9], in [4] and in experiment [5] was over 100 µM in each case. Moreover, the TGI in experiment [6], in experiment [7] and in experiment [8] was over 100 µM in each case.

In the case of `Cc1ccc(S(=O)(=O)OC[C@@H]2CO2)cc1`, the TGI in experiment [1], in experiment [2], in [3], in experiment [5], in experiment [6] and in experiment [7] was over 100 µM in each case. The compound further registered a TGI in [8] of over 100 µM.

With `CCC[CH2][Sn]([CH2]CCC)([S]c1cccc2cccnc12)[S]c1cccc2cccnc12`, the GI50 in [3] was 0.348 µM; in [9], 0.101 µM; in [4], 0.129 µM; in experiment [5], 0.0642 µM; in experiment [6], 0.0703 µM; in [7], 0.215 µM. The GI50 in experiment [8] was 0.227 µM. The TGI in experiment [3] came to 1.34 µM; in experiment [9], 0.26 µM; in experiment [4], 0.319 µM; in experiment [5], 0.611 µM; in [6] it was 0.228 µM; in experiment [7] it was 0.474 µM. The TGI in experiment [8] was found to be 0.56 µM.

As to `O=C1/C(=C/c2ccc(O)c(O)c2)CCC/C1=C\c1ccc(O)c(O)c1`, the TGI was 13.1 µM in experiment [1]; 13.2 µM in [2]; over 50.2 µM in [3]; 9.93 µM in experiment [9]; over 48.1 µM in experiment [10]; over 60.1 µM in [5]. Further, the TGI in [6] worked out at 17.8 µM; in [7] it was 23.8 µM; in experiment [8], 15.5 µM.

Take `CNC(=S)OCCC(C)CCCC(C)C` (stereo not drawn): the TGI came out at 26.7 µM in experiment [1]; 32.5 µM in [3]; 31.1 µM in experiment [9]; 30.9 µM in experiment [5]; 30 µM in experiment [7]; 30.9 µM in experiment [8].

`CCCC1C(=O)CCc2c(OC)ccc(OC)c21` (stereo not drawn): the TGI in experiment [1], in experiment [3], in [9], in experiment [4], in experiment [5] and in experiment [6] was over 100 µM throughout. In addition, the TGI in experiment [7] and in [8] was over 100 µM in each case.

On to `CCCCCCCCCCCCCC(=O)OC(/C=C/C(C)C)C(O)C(O)C(OC)C(=O)NC1CCCCN(C)C1=O` (stereo not drawn), for which the GI50 in experiment [1], in experiment [2], in [4], in experiment [5] and in experiment [7] was over 49 µM throughout. Also, the TGI was 9.12 µM and > 49 µM in [1]; over 49 µM in experiment [2]; 5.06 µM and > 49 µM in [3]; 5.44 µM and > 49 µM in [4]; 13.4 µM and > 49 µM in [5]; 8.03 µM and > 49 µM in experiment [6]. The TGI in experiment [7] is 7.64 µM and > 49 µM; in [8], 5.94 µM and > 49 µM.

In the case of `O=C(CC(=O)c1cccc2ccccc12)C(=O)Nc1ccc(Cl)cc1`, the TGI in [2], in [3], in experiment [9], in [4], in experiment [5] and in experiment [6] was over 100 µM throughout. For the same compound, the TGI in experiment [7] and in [8] was over 100 µM in each case.

In the case of `COc1ccccc1N1C(=O)C2c3[nH]c4ccccc4c3C3CCC(C(C)(C)C)CC3C2C1=O` (stereo not drawn), the TGI in [2], in experiment [3], in [9], in experiment [4], in experiment [5] and in experiment [7] was over 100 µM in each case. For the same compound, in experiment [8], the TGI was over 100 µM.

For `COC(=O)/C(C#N)=C1\NC(=O)c2ccccc21`, the TGI in [2], in experiment [3], in experiment [4], in experiment [5], in experiment [6] and in experiment [7] was over 100 µM throughout. The compound further returned a TGI in experiment [8] of over 100 µM.

On to `COc1cc2ccnc([C@@H](OC(=O)c3ccccc3)c3ccc(OC)c(OC)c3OC)c2cc1OC`, for which the TGI in [1], in [2], in experiment [3], in experiment [4], in [5] and in experiment [6] was over 100 µM throughout. For the same compound, the TGI in experiment [7] and in experiment [8] was over 100 µM each time.

Consider `CCN(CC)CCSc1c2ccccc2nc2cc(NCC(=O)Nc3ccccc3-c3ccccc3NC(=O)CNc3ccc4c(SCCN(CC)CC)c5ccccc5nc4c3)ccc12`, for which the TGI in experiment [1] is over 100 µM; in experiment [2], over 100 µM; in [3], over 100 µM; in experiment [9], over 100 µM; in [5] it was over 73.5 µM; in experiment [6] it was over 100 µM. Besides, the TGI in experiment [7] and in experiment [8] was over 100 µM each time.
